Source: patent US20210181179A1, “DIAGNOSIS AND TREATMENT OF IMMUNOTHERAPY-INDUCED NEUROTOXICITY” (MEMORIAL SLOAN KETTERING CANCER CENTER, priority 2018, published 2021)

How the values were obtained:
[1] = tested on: HMC3 microglial cell line; experiment: RT-PCR of cytokines and chemokines in microglial cells; format: cell-based, human; conditions: for key chemokines, including CCL2, CXCL9 and CXCL10, and cytokine IL1beta: monocyte and microglial cell activation
Source text: FIGS. 19A-E. Kynurenine metabolites contribute to CRS. (FIG. 19A-B) RT-PCR analysis of cytokines and chemokines that lead to myeloid cell activation in response to kynurenine metabolites exposure. ([…]) Western blot analysis of HMC3 microglial cell line in response to kynurenine metabolites exposure. (FIGS. 19D-E.) RT-PCR analysis of cytokines and chemokines in response to exposure to cytokines shown (TNF, Il1β, IFNγ).
CCL2 (MCP1) and CXCL10 (IP10) serve as chemo-attractants for myeloid and T cells, while CXCL9 (MIG) is a potent T cell chemoattractant. […] We confirmed Il1β protein production in response to Il1β stimulation (FIG. 19C). Il1β production was dependent on Ahr activity, as addition of an Ahr antagonist blocked up-regulation of Il1β. Il1β is a strong inducer of microglial activation.

[2] = tested on: adult patients with CD19+B-ALL; experiment: Management of neurotoxicity and CRS (tocilizumab, corticosteroid, seizure prophylaxis) in the 19-28z CAR T cell trial; format: in vivo, human; conditions: seizure prophylaxis
Source text: The anti-IL-6 receptor monoclonal antibody, tocilizumab, with or without corticosteroid is often used to mitigate CRS and neurotoxicity. Six (18%) of 33 patients with neurotoxicity received tocilizumab alone; 14 (42%) received tocilizumab plus corticosteroid; 4 (12%) received corticosteroid alone; and 9 (27%) received neither tocilizumab nor corticosteroid (FIG. 6/Supplementary Fig. S1). In the 16 patients with severe neurotoxicity who received tocilizumab, 9 (56.3%) had peak neurotoxicity after the first dose of tocilizumab whereas 7 (43.7%) had peak neurotoxicity prior to or on the day of tocilizumab administration. […] The time from first tocilizumab and/or steroid dose to resolution of neurotoxicity (median, 9 days; range 4-21 days) was longer than the time to resolution of CRS (median, 1 day; range 0-3 days; P<0.001), confirming previous findings that neurotoxicity is less responsive than CRS to these treatment interventions.
Toxicity assessment: CRS was graded according to the MSKCC CRS grading system. Severe CRS was defined as ≥grade 3. Neurotoxicity was prospectively graded according to National Cancer Institute common terminology criteria for adverse events (CTCAE) v4.03 by the principal investigator (P). An independent retrospective review of the electronic medical record was performed by a neurologist (BS) who assigned daily neurotoxicity grades to the AE terms according to CTCAE v4.03. Discrepancies were adjudicated by consensus review. All patients developing neurologic symptoms were evaluated by the neurology consult service and followed with daily neurologic assessments until neurologic symptom resolution. Severe neurotoxicity was defined as ≥grade 3 toxicity with the exception that any seizure (including grade 1 or 2 by CTCAE criteria) was included as severe neurotoxicity.

HMC3 (microglia) = experiment: Net production of TRP metabolites in media samples, HMC3; format: cell-based, human
Source text: (§1) Under physiological conditions in the brain, kynurenine metabolism is driven by microglial cells and astrocytes with preferential production of QUIN and KA respectively. […] This may have been due to T cells producing cytokines and/or intermediate metabolites that are further metabolized to QUIN by the cells. In order to identify specific factors that may lead to tryptophan-kynurenine pathway up-regulation for QUIN production, we tested a panel of cytokine and chemokines implicated in NTX and CRS. […] We initially evaluated the panel of the select factors individually (FIGS. 16 A-B). We selected several cytokines based on their effect on rate-limiting enzymes for QUIN production. These included IFNγ, TNF, […], CXCL10 and […]. These enzymes were selected based on their regulation of key enzymes, KMO and KYNU, which may lead to supraphysiological accumulation of QUIN. These factors were further evaluated, individually or in combination, on astrocytoma, microglial, and primary monocyte-derived macrophages for mRNA levels of kynurenine pathway enzymes and kynurenine metabolites production (FIG. 17).

ALL3.1 (B-ALL) = experiment: Net production of TRP metabolites in media samples, ALL3.1; format: cell-based
HCN2 (cortical neuron) = experiment: Net production of TRP metabolites in media samples, HCN2; format: cell-based
THP-1 (monocyte) = experiment: Net production of TRP metabolites in media samples, THP-1; format: cell-based
RS4; 11 (B-ALL) = experiment: Net production of TRP metabolites in media samples, RS4; 11; format: cell-based
CCRF-SB (B-ALL) = experiment: Net production of TRP metabolites in media samples, CCRF-SB; format: cell-based
BV173 (B-ALL) = experiment: Net production of TRP metabolites in media samples, BV173; format: cell-based
CCF-STTG1 (astrocytoma) = experiment: Net production of TRP metabolites in media samples, CCF-STTG1; format: cell-based, human
Source text: as §1

KARPAS231 (B-ALL) = experiment: Net production of TRP metabolites in media samples, KARPAS231; format: cell-based
DOAY (medulloblastoma) = experiment: Net production of TRP metabolites in media samples, DOAY; format: cell-based
SUP-B15 (B-ALL) = experiment: Net production of TRP metabolites in media samples, SUP-B15; format: cell-based

`O=C(O)c1cc(=O)c2ccccc2[nH]1` [KA, kynurenic acid] was tested, and the “key chemokines, including CCL2, CXCL9 and CXCL10, and cytokine IL1beta” value [1] was “up-regulation”.

`Nc1ccccc1C(=O)CC(N)C(=O)O` (stereo not shown) [kynurenine] was tested, and the “production of chemokines and cytokines on co-incubation” value ([1]; microglial cells, RT-PCR) was “induced production of several chemokines (CCL2, CXCL9, CXCL10) and cytokines, most notably Il1β” and the “key chemokines, including CCL2, CXCL9 and CXCL10, and cytokine IL1beta” value [1] was “up-regulation”.

`CC[C@@H](C(N)=O)N1CCCC1=O` [levetiracetam] was tested, and the “patients who developed seizure despite levetiracetam prophylaxis” value [2] was 14 patients.

In the case of TNFα, the “Net production of TRP metabolites in media samples: 3-HK” value (“Net production … 3-HK” for short) (HMC3 (microglia)) was 7.44 ± 18, the “Net production of TRP metabolites in media samples: HAA” value (“Net production … HAA” below) (HMC3 (microglia)) was −2.14 ± 0.45 and the “Net production of TRP metabolites in media samples: KA” value (from here on “Net production … KA”) (HMC3 (microglia)) was 3.38 ± 2.9. For the same compound, the “Net production of TRP metabolites in media samples: KYN” value (from here on “Net production … KYN”) (HMC3 (microglia)) was 506.02 ± 251^, the “Net production of TRP metabolites in media samples: QUIN” value (shortened to “Net production … QUIN”) (HMC3 (microglia)) was 52.84 ± 27.6 and the “Net production … 3-HK” value (ALL3.1 (B-ALL)) was 6.26 ± 7.3. The “Net production … KA” value (ALL3.1 (B-ALL)) was −4.56 ± 5.5, the “Net production … KYN” value (ALL3.1 (B-ALL)) was 76.98 ± 139.6 and the “Net production … QUIN” value (ALL3.1 (B-ALL)) was −13.1 ± 32.3. The “Net production … 3-HK” value (HCN2 (cortical neuron)) was 4.82 ± 1.9, the “Net production … HAA” value (HCN2 (cortical neuron)) was 4.52 ± 0.3 and the “Net production … KA” value (HCN2 (cortical neuron)) was 1.56 ± 1.5. For the same compound, the “Net production … KYN” value (HCN2 (cortical neuron)) was 5.4 ± 10, the “Net production … QUIN” value (HCN2 (cortical neuron)) was 8.44 ± 12.2 and the “Net production … 3-HK” value (THP-1 (monocyte)) was 0.82 ± 1.5. The “Net production … KA” value (THP-1 (monocyte)) was −9.9 ± 5, the “Net production … KYN” value (THP-1 (monocyte)) was 298.62 ± 61.8 and the “Net production … QUIN” value (THP-1 (monocyte)) was 16.24 ± 51.4. For the same compound, the “Net production … 3-HK” value (RS4; 11 (B-ALL)) was −0.34 ± 1.9, the “Net production … KA” value (RS4; 11 (B-ALL)) was −5.46 ± 5.7 and the “Net production … KYN” value (RS4; 11 (B-ALL)) was 4.38 ± 25.2. The “Net production … QUIN” value (RS4; 11 (B-ALL)) was 42.26 ± 39^, the “Net production … 3-HK” value (CCRF-SB (B-ALL)) was 28.96 ± 22.5 and the “Net production … HAA” value (CCRF-SB (B-ALL)) was 11.34 ± 3.9. The “Net production … KA” value (CCRF-SB (B-ALL)) was −9.3 ± 4.7, the “Net production … KYN” value (CCRF-SB (B-ALL)) was 361.62 ± 256.4 and the “Net production … QUIN” value (CCRF-SB (B-ALL)) was −70.3 ± 30.4. For the same compound, the “Net production … 3-HK” value (BV173 (B-ALL)) was 10.36 ± 9.9, the “Net production … KA” value (BV173 (B-ALL)) was −3.16 ± 2.1 and the “Net production … KYN” value (BV173 (B-ALL)) was 216.84 ± 141.1 ™. The “Net production … QUIN” value (BV173 (B-ALL)) was −8.44 ± 48.4, the “Net production … 3-HK” value (CCF-STTG1 (astrocytoma)) was −9.8 ± 2.6 and the “Net production … HAA” value (CCF-STTG1 (astrocytoma)) was 10.74 ± 0.9. For the same compound, the “Net production … KA” value (CCF-STTG1 (astrocytoma)) was 1.36 ± 0.5, the “Net production … KYN” value (CCF-STTG1 (astrocytoma)) was 2853.38 ± 129.6 and the “Net production … QUIN” value (CCF-STTG1 (astrocytoma)) was 12.92 ± 4. The “Net production … 3-HK” value (KARPAS231 (B-ALL)) was 4.94 ± 3.4, the “Net production … HAA” value (KARPAS231 (B-ALL)) was 14.18 ± 4.6 and the “Net production … KA” value (KARPAS231 (B-ALL)) was −7.72 ± 36.9. For the same compound, the “Net production … KYN” value (KARPAS231 (B-ALL)) was −72.84 ± 36.9, the “Net production … QUIN” value (KARPAS231 (B-ALL)) was −44.96 ± 36.3 and the “Net production … 3-HK” value (DOAY (medulloblastoma)) was −8.84 ± 1.2. The “Net production … HAA” value (DOAY (medulloblastoma)) was 10.14 ± 0.8, the “Net production … KA” value (DOAY (medulloblastoma)) was 4.52 ± 0.7 and the “Net production … KYN” value (DOAY (medulloblastoma)) was 35.94 ± 12.9. For the same compound, the “Net production … QUIN” value (DOAY (medulloblastoma)) was 19.86 ± 7.1, the “Net production … 3-HK” value (SUP-B15 (B-ALL)) was 17.56 ± 14^ and the “Net production … HAA” value (SUP-B15 (B-ALL)) was 6.58 ± 0.8. For the same compound, the “Net production … KA” value (SUP-B15 (B-ALL)) was −9.16 ± 3^, the “Net production … KYN” value (SUP-B15 (B-ALL)) was 303.8 ± 191 and the “Net production … QUIN” value (SUP-B15 (B-ALL)) was −67.3 ± 23^.
